Measurements taken from PMC7525093, “Bis-Quinolinium Cyclophane Blockers of SK Potassium Channels Are Antagonists of M3 Muscarinic Acetylcholine Receptors” (Frontiers in Pharmacology, 2020).
Structures can show the parent of a compound that is named as a salt. Where two headings read alike, the source gives them in different places. Values belong to the molecule of their own block, whether it stands above or below them. Ends that are not written are not given here.

Experiments:
mouse trachea = assay: Isometric tracheal tension measurement (organ bath); settings: for IC50: cumulative concentrations, Hill function, read-out: IC50, relaxation of carbachol-precontracted trachea; for Relaxation response of trachea: TrpM channel blocker
Protocol: Mice used in these studies were BALB/C mice from Jackson Labs. All animal procedures were reviewed and approved by the University of Texas Health Science Center at San Antonio Institutional Animal Care and Use Committee. For tracheal constriction studies, animals were deeply anesthetized with isoflurane and then sacrificed by cervical dislocation. Isometric tracheal contraction measurements were performed as previously described ([Semenov et al., 2012]). Trachea were removed and surrounding tissues dissected in ice-cold physiologic saline solution (PSS) consisting of 119 mM NaCl, 4.7 mM KCl, 2.0 mM CaCl2, 1.0 mM KH2PO4, 1.17 mM MgSO4, 18 mM NaHCO3, 0.026 mM EDTA, 11 mM glucose, and 12.5 mM sucrose. Trachea were cut below the pharynx and above the primary bronchus bifurcation. Two metal wires, attached to a force transducer and micrometer (Radnoti, LLC), were threaded into the lumen of the trachea. Trachea were placed into an oxygenated organ bath (95% O2, 5% CO2), at 37°C, pH 7.35 (after bubbling with 95% O2–5% CO2). Tracheal resting tension was readjusted to 1 gram over 1 h and then challenged with 67 mM potassium PSS with NaCl adjusted to 56.7 mM to maintain proper osmolarity (KPS). Trachea were challenged two or more times until reproducible contractile responses were achieved. All subsequent experimental drug responses were normalized to the KPS response. Bladder measurements were conducted in a similar manner as trachea with identical solutions. The bladder was excised and formed into a ring by cutting anterior and posterior portions before mounting on metal wires for force measurements. For the aorta preparation, the ascending thoracic aorta was excised and cut into 2–3 mm sections before mounting on wires for force measurements.

[1] = molecular target: T1, human M3 muscarinic acetylcholine receptor (Homo sapiens, UniProt P20309); assay: R-CEPIAer ER calcium assay of Gq-coupled receptor activation, M3-transfected CHO-K1 cells; format: cell-based; settings: for Hill slope of inhibition curve, M3 receptor: Hill equation fit
T1 construct: host or cells: CHO-K1 cells, stably transfected
Protocol: The binding of antagonists to Gq-coupled receptors was determined by measuring IP3-mediated calcium depletion from the endoplasmic reticulum (ER). This was accomplished using CHO-K1 cells stably transfected with human M3 muscarinic acetylcholine receptor (CEM3000000, cDNA Resource Center, Bloomsburg University) and R-CEPIAer, a low affinity ER-targeted calcium indicator fluorescent protein ([Suzuki et al., 2014]). R-CEPIAer reporting of ER calcium concentration was assessed using 564 nm excitation light (>590 long-pass emission) at 20 second intervals on a Nikon swept-field confocal microscope using slit-scan mode, 2x2 Binning, and 100 millisecond frames. F/Fmax was fluorescence intensity normalized to maximal fluorescence intensity during the experiment. The response of cells to Gq-coupled receptor agonist were measured as the change in F/Fmax (ΔF/Fmax) from preagonist value to fluorescence minimum during agonist application (that occurs by IP3-mediated ER calcium depletion). […] Perfusion of each agonist application was for 2 min, while the antagonist overlapped and preceded the second agonist application by 3 min. […] IC50 was calculated by assaying fractional inhibition using a dose-response of antagonist concentrations (i.e. Figure 1D ). For assays of other receptors such as the M1 and M5 muscarinic receptors, H1 histamine and P2Y1 purinergic receptors, these receptors were transiently co-transfected with the pCMV R-CEPIAer plasmid (a gift from Masamitsu Iino (Addgene plasmid # 58216; http://n2t.net/addgene:58216; RRID : Addgene_58216)) into CHO cells using polyethylenimine [according to previous methods ([Longo et al., 2013])]. IC50 and EC50 values were estimated by fitting the dose-response relationship to a Hill equation.
To obtain a pKB using a Schild analysis ([Arunlakshana and Schild, 1959]), the acetylcholine EC50 was measured in the absence of UCL1684 and EC50′ measured in the presence of increasing concentrations of UCL1684. These values were used to calculate a dose ratio (DR = EC50′/EC50) for each UCL1684 concentration. The log(DR − 1) was plotted vs. log UCL1684 concentrations and fit to a linear equation where the theoretical X-intercept was used to estimate a pKB.

SK potassium channels = settings: cited from earlier work
CNG2 = system: CNG2; parameters: method as in Rosenbaum et al., 2004; settings: ref Rosenbaum et al., 2004; read-out: IC50, block of CNG2 channels; cited from earlier work
CNG1 = system: CNG1; parameters: method as in Rosenbaum et al., 2004; settings: ref Rosenbaum et al., 2004; read-out: IC50, block of CNG1 channels; cited from earlier work
mouse = system: mouse; parameters: method as in Gamboa-Vujicic et al., 1993; settings: ref Gamboa-Vujicic et al., 1993, cited from earlier work
[2] = 5 μM antagonist, 0.5 μM carbachol, 0 = none, 1 = complete inhibition

T1 sequence (P20309 whole entry): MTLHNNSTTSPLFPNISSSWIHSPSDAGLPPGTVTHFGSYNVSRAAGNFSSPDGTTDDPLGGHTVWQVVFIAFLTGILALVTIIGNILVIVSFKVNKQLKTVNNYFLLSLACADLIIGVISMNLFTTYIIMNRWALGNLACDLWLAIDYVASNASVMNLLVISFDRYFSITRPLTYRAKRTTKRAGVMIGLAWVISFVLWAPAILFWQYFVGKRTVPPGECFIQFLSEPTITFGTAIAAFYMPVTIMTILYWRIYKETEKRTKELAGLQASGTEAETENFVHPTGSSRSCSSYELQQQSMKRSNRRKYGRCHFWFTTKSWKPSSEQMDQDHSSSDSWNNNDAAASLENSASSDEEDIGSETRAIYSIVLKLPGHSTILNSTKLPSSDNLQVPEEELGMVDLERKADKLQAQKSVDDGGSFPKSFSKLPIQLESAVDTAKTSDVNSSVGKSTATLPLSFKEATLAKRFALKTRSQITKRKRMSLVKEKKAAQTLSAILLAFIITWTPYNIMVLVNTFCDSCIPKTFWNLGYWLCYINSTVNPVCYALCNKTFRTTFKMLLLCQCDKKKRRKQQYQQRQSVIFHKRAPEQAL

IC50 (mouse trachea; 0.5 μM carbachol): 31.5 ± 2 µM | IC50 (mouse trachea; Mus musculus, 0.5 μM carbachol): 31 µM | IC50 [1]: 83 µM | Hill slope of inhibition curve, M3 receptor ([1]; 0.5 μM carbachol): 1.7 ± 0.35 | Effect on M3 carbachol response ([1]; 10 μM antagonist, 0.5 μM carbachol): undetectable | Fractional inhibition of second carbachol response ([1]; 100 μM antagonist, 0.5 μM carbachol): 0.60 ± 0.03
Molecule: Cl.c1ccc2c(c1)CCC[C@H]2Nc1nc2ccccc2[nH]1 [NS8593, N-[(1R)-1,2,3,4-Tetrahydro-1-naphthalenyl]-1H-benzimidazol-2-amine hydrochloride]
Relaxation of precontracted trachea (mouse trachea; 76.8 μM (highest concentration), 0.5 μM carbachol): complete relaxation

Molecule: c1ccc2c(c1)c1cc[n+]2CCCCC[n+]2ccc(c3ccccc32)NCCCCCN1 [UCL 1848, 8,14-Diaza-1,7(1,4)-diquinolinacyclotetradecaphane trifluoroacetate salt]
IC50 (SK potassium channels; effects on SK-dependent fast-afterhyperpolarizing currents, ref Campos Rosa et al., 1996, Chen et al., 2000, Blank et al., 2004, read-out: IC50, SK potassium channels): 0.002 µM | IC50 (SK potassium channels; ref Chen et al., 2000, read-out: IC50, block of SK channels): 0.0027 µM | IC50 [1]: 1 µM | Hill slope of inhibition curve, M3 receptor ([1]; 0.5 μM carbachol): 1.47 ± 0.46 | Fractional inhibition of second carbachol response [1, 2]: 0.98 ± 0.01

Molecule: CCCCCCCCCCCCC/C=C/[C@@H](O)[C@@H](N)CO [d-erthyro-sphingosine]
Relaxation response of trachea (mouse trachea; 8.1 μM): 14.9 ± 6.0

IC50 [1]: 0.27 µM | Hill slope of inhibition curve, M3 receptor ([1]; 0.5 μM carbachol): 0.90 ± 0.29 | Fractional inhibition of second carbachol response [1, 2]: 0.99 ± 0.003
Molecule: Cc1cc(=N)c2ccccc2n1CCCCCCCCCCn1c(C)cc(=N)c2ccccc21.Cl.Cl [dequalinium chloride, 1-[10-(4-imino-2-methyl-1,4-dihydroquinolin-1-yl)decyl]-2-methyl-1,4-dihydroquinolin-4-imine dihydrochloride]
IC50 (SK potassium channels; ref Castle et al., 1993, Dunn, 1994, read-out: IC50, block of SK potassium channels): 1.5 µM | IC50 (CNG2): 2.4 µM | IC50 (CNG1): 0.19 µM

Molecule: Cc1cc(N)c2ccccc2[n+]1CCCCCCCCCC[n+]1c(C)cc(N)c2ccccc21.[Cl-].[Cl-] [dequalinium chloride, 1-[10-(4-imino-2-methyl-1,4-dihydroquinolin-1-yl)decyl]-2-methyl-1,4-dihydroquinolin-4-imine dihydrochloride]
LD50 (mouse; intraperitoneal administration): 18.3 mg/kg | LD50 (mouse; oral administration): 300 mg/kg

Molecule: CC(Cc1ccc(O)c(O)c1)C(C)Cc1ccc(O)c(O)c1 (stereo not drawn) [nordihydroguaiaretic acid]
Relaxation response of trachea (mouse trachea; 25 μM): 12.4 ± 8.5

Molecule: Apamin: peptide blocker of SK channels (CNCKAPETALCARRCQQH; not fully specified (C-terminus, bridges); cysteine pairing not given here; UniProt P01500 28-45, looked up)
Relaxation of ASM contractions (mouse trachea; 100 nM, 0.5 μM carbachol): did not relax ASM contractions | Relaxation response of trachea, single dose (mouse trachea; 100 nM, 0.5 μM carbachol): −15 ± 7
